# Reference: publication PMC10587169, “Tuning aminopolycarboxylate chelators for efficient complexation of trivalent actinides” (Scientific Reports, 2023)
# Like-named read-outs stand apart in the source and are kept apart here.
# Assays:
# [1] = cited from earlier work
# [2] = Spectrophotometric titration; format: binding; details: spectrophotometrically measured, I = 2.0 M (Na+/H+)ClO4, T = 25 ± 1 °C, ±3σ
# Source text: Changes in the optical absorption characteristics of Nd^3+ were monitored using a Cary 6000i UV/Vis–NIR Spectrometer (Agilent) using 1 cm semimicro quartz cuvettes (Starna) in double-beam mode, where the ^4I9/2 → ^4G5/2, ^2G7/2 transitions[34] were monitored between 560 and 605 nm with a 0.075 nm interval and 1.0 nm spectral bandwidth. Changes in the optical absorption characteristics of ^243Am^3+ and ^248Cm^3+ were monitored using a Flame-S-VIS–NIR-ES spectrometer coupled to a DH-2000-BAL dual-mode light source (Ocean Optics) with a single 1 cm semimicro quartz cuvette (Starna). […] The complexation of Am^3+ with the ligands was monitored in the 495–525 nm spectral region, looking at the ^7F0′ → ^5L6′ transition[23],[35]. For Cm^3+, ligand complexation was monitored in the 365–410 nm spectral region, looking at the ^8S7/2 → ^2Ji (i = {15}, {13,9}, {11,17}) manifold transitions[24],[25],[36]. Changes in aqueous p[H^+] were monitored throughout each titration step using a Gran-calibrated Orion Ross Semi-micro glass electrode. […] Finally, the spectroscopic data was analyzed using the HypSpec software package[33],[37]. […]
# To further validate the competitive solvent extraction methodology the complexation of Am^3+ with H4octapa and Cm^3+ with H4pypa-peg was studied spectrophotometrically. […] The presence of both ligands induced new red-shifted absorption signatures in each monitored titration. […]
# [3] = Spectrophotometric titration; format: binding; details: I = 2.0 M (Na+/H+)ClO4 at 20.0 °C, not marked potentiometry (spectrophotometric titration)
smiles,measurement,setting,value
"O=C(O)CN(CCN(CC(=O)O)Cc1cccc(C(=O)O)n1)Cc1cccc(C(=O)O)n1 [H4octapa, 6,6′-((ethane-1,2-diylbis–((carboxymethyl)azanediyl))bis–(methylene))dipicolinic acid]",pKa H2L2-,[1]; I = 0.15 M NaCl at 25 °C,5.40 (1)
same,pKa H3L-,[1]; I = 0.15 M NaCl at 25 °C,3.65 (1)
same,pKa H4L(aq),[1]; I = 0.15 M NaCl at 25 °C,2.97 (1)
same,pKa H5L+,[1]; I = 0.15 M NaCl at 25 °C,1.66 (1)
same,pKa HL3-,[1]; I = 0.15 M NaCl at 25 °C,8.52 (1)
same,pKa H2L2-,[1]; I = 0.16 M NaCl at 25 °C,5.43 (2)
same,pKa H3L-,[1]; I = 0.16 M NaCl at 25 °C,3.75 (1)
same,pKa H4L(aq),[1]; I = 0.16 M NaCl at 25 °C,3.08 (1)
same,pKa H5L+,[1]; I = 0.16 M NaCl at 25 °C,2.21 (2)
same,pKa H6L2+,[1]; I = 0.16 M NaCl at 25 °C,1.61 (2)
same,pKa H7L3+,[1]; I = 0.16 M NaCl at 25 °C,0.12 (4)
same,pKa HL3-,[1]; I = 0.16 M NaCl at 25 °C,8.58 (1)
"O=C(O)CN(Cc1cc(-c2cn(CCOCCOCCO)nn2)cc(CN(CC(=O)O)Cc2cccc(C(=O)O)n2)n1)Cc1cccc(C(=O)O)n1 [H4pypa-peg, 6,6'-((((4-(1-(2-(2-(2-hydroxyethoxy)ethoxy)ethyl)-1H-1,2,3-triazol-4-yl)pyridine-2,6-diyl)bis–(methylene))bis–((carboxymethyl)azanediyl))bis–(methylene)) dipicolinic acid]","logβ101 (ML), Cm3+",[2],20.37 (2)
"O=C(O)CN(CCN(CCN(CC(=O)O)CC(=O)O)CC(=O)O)CCN(CC(=O)O)CC(=O)O [H6ttha, triethylenetetraamine-N,N,N',N'',N''',N'''-hexaacetic acid]","logβ121 (MH2L), Nd3+",[3],27.7(1)
